Results from US12516064B2, “Tetrahydropyridopyrimidines and related analogs for inhibiting YAP/TAZ-TEAD” (THE KATHOLIEKE UNIVERSITEIT LEUVEN, priority 2022, dated 2026).

Assays:
Type in all cases: cell-based
[1] = system: YAP/TAZ-TEAD transcription; test: Reporter gene assay for measuring the inhibition of YAP/TAZ-TEAD transcription; details: Homo sapiens, HEK-293T; Hek293T cells transiently transfected with TEAD-responsive element luciferase reporter; 24 hours incubation
How it was run: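 HEK293T cells transiently transfected with a TEAD-responsive luciferase reporter, plated onto pre-diluted compounds and incubated 24 h at 37 °C/5% CO2. Luminescence read after SteadyLite substrate; percent inhibition scaled between vehicle (0%) and positive control inhibitor (100%), giving IC50/EC50.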

NCI-H226 = test: Mesothelioma cell line proliferation assay (NCI-H226); details: Homo sapiens, 144 h; NCI-H226 cells; 6 days with compound; cell viability by ATPlite
Protocol: (§1) Mesothelioma cell lines, NCI-H226 and NCI-H2052 (all sourced from the ATCC cell culture collection) are plated in 96-well plates (Corning® 96 Well White Polystyrene Microplate clear flat bottom, white polystyrene (TC-Treated)), at 1500 cells/well in full medium (RPMI 1640 ATCC modification with L-glutamine, HEPES, Phenol Red, Sodium Pyruvate, High glucose, Low sodium bicarbonate and 10% fetal bovine serum). Cells are incubated overnight at 37° C. in an incubator with 5% CO2. Then compounds, dissolved in DMSO, are added in dose-response. Cells are incubated with compound dilutions for another 6 days at 37° C. in an incubator with 5% CO2. Cell viability is quantitated using the ATPlite kit (Perkin-Elmer) and the luminescence is read-out using an Envision instrument (Perkin-Elmer). The amount of relative light units produced using the ATPlite kit is used to calculated percent of inhibition.
(§2) The activities of some example compounds are depicted in Table 9. The activity ranges A, B and C refer to EC50 values in the mesothelioma cell line proliferation assay as described as follows: “A”: EC50<1 μM; “B”: 1 μM≤EC50≤10 μM and “C”: EC50>10 μM; NT: not tested.

NCI-H2052 = test: Mesothelioma cell line proliferation assay (NCI-H2052); details: Homo sapiens, 144 h; NCI-H2052 cells; 6 days with compound; cell viability by ATPlite
Protocol: as §1, §2

Work on `C=CC(=O)N1CCc2c(nc(C3CCC(F)(F)CC3)nc2-c2ccn(C)n2)C1` [Cpd. No. 89, 1-(2-(4,4-difluorocyclohexyl)-4-(1-methyl-1H-pyrazol-3-yl)-5,8-dihydropyrido[3,4-d]pyrimidin-7(6H)-yl)prop-2-en-1-one] yielded an EC50 [1] of under 1000 nM, an EC50 (NCI-H226) of under 1000 nM and an EC50 (NCI-H2052) of over 10000 nM.

`C=C(C)C(=O)N1CCc2c(nc(-c3ccc(C(F)(F)F)cc3)nc2-c2ccn(C)n2)C1` [Cpd. No. 77, 2-methyl-1-(4-(1-methyl-1H-pyrazol-3-yl)-2-(4-(trifluoromethyl)phenyl)-5,8-dihydropyrido[3,4-d]pyrimidin-7(6H)-yl)prop-2-en-1-one] was tested, and the EC50 [1] was under 1000 nM, the EC50 (NCI-H226) was under 1000 nM and the EC50 (NCI-H2052) was over 10000 nM.

`C=CC(=O)N1CCc2c(nc(Cc3ccc(C(F)(F)F)cc3)nc2-c2ccn(Cc3cccnc3)n2)C1` [Cpd. No. 49, 1-(4-(1-(pyridin-3-ylmethyl)-1H-pyrazol-3-yl)-2-(4-(trifluoromethyl)benzyl)-5,8-dihydropyrido[3,4-d]pyrimidin-7(6H)-yl)prop-2-en-1-one] gave an EC50 [1] of under 1000 nM, an EC50 (NCI-H226) of under 1000 nM and an EC50 (NCI-H2052) of over 10000 nM.

In the case of `C=CC(=O)N1CCc2c(nc(-c3ccc(F)c(F)c3)nc2-c2ccn(C)n2)C1` [Cpd. No. 53, 1-(2-(3,4-difluorophenyl)-4-(1-methyl-1H-pyrazol-3-yl)-5,8-dihydropyrido[3,4-d]pyrimidin-7(6H)-yl)prop-2-en-1-one], the EC50 [1] is reported as under 1000 nM, the EC50 (NCI-H226) is reported as under 1000 nM and the EC50 (NCI-H2052) is reported as 1000 to 10000 nM.

Compound `C=CC(=O)N1CCc2c(nc(-c3ccc(C(F)(F)F)cc3)nc2-c2cn(C)nn2)C1` [Cpd. No. 87, 1-(4-(1-methyl-1H-1,2,3-triazol-4-yl)-2-(4-(trifluoromethyl)phenyl)-5,8-dihydropyrido[3,4-d]pyrimidin-7(6H)-yl)prop-2-en-1-one] has an EC50 [1] of under 1000 nM, an EC50 (NCI-H226) of 1000 to 10000 nM and an EC50 (NCI-H2052) of 1000 to 10000 nM.

With `CCC(=O)N1CCc2c(nc(C3CCC(F)(F)CC3)nc2-c2ccn(C)n2)C1` [Cpd. No. 90, 1-(2-(4,4-difluorocyclohexyl)-4-(1-methyl-1H-pyrazol-3-yl)-5,8-dihydropyrido[3,4-d]pyrimidin-7(6H)-yl)propan-1-one] the EC50 [1] was 1000 to 3000 nM, the EC50 (NCI-H226) was over 10000 nM and the EC50 (NCI-H2052) was over 10000 nM.

For `CC#CC(=O)N1CCc2c(nc(C3CCC(F)(F)CC3)nc2-c2ccn(C)n2)C1` [Cpd. No. 94, 1-(2-(4,4-difluorocyclohexyl)-4-(1-methyl-1H-pyrazol-3-yl)-5,8-dihydropyrido[3,4-d]pyrimidin-7(6H)-yl)but-2-yn-1-one], the EC50 [1] was under 1000 nM, the EC50 (NCI-H226) was under 1000 nM and the EC50 (NCI-H2052) was over 10000 nM.

`C/C=C/C(=O)N1CCc2c(nc(-c3ccc(C(F)(F)F)cc3)nc2-c2ccn(C)n2)C1` [Cpd. No. 74, (E)-1-(4-(1-methyl-1H-pyrazol-3-yl)-2-(4-(trifluoromethyl)phenyl)-5,8-dihydropyrido[3,4-d]pyrimidin-7(6H)-yl)but-2-en-1-one] showed an EC50 [1] of under 1000 nM, an EC50 (NCI-H226) of under 1000 nM and an EC50 (NCI-H2052) of 1000 to 10000 nM.

With `C=CC(=O)N1CCc2c(nc(-c3ccc(C(F)(F)F)cc3)nc2-c2ccn(CCOC)n2)C1` [Cpd. No. 73, 1-(4-(1-(2-methoxyethyl)-1H-pyrazol-3-yl)-2-(4-(trifluoromethyl)phenyl)-5,8-dihydropyrido[3,4-d]pyrimidin-7(6H)-yl)prop-2-en-1-one] the EC50 [1] was under 1000 nM, the EC50 (NCI-H226) was under 1000 nM and the EC50 (NCI-H2052) was 1000 to 10000 nM.

In the case of `CC#CC(=O)N1CCc2c(nc(-c3ccc(C(F)(F)F)cc3)nc2-c2ccn(C)n2)C1` [Cpd. No. 86, 1-(4-(1-methyl-1H-pyrazol-3-yl)-2-(4-(trifluoromethyl)phenyl)-5,8-dihydropyrido[3,4-d]pyrimidin-7(6H)-yl)but-2-yn-1-one], the EC50 [1] is reported as under 1000 nM, the EC50 (NCI-H226) is reported as under 1000 nM and the EC50 (NCI-H2052) is reported as under 1000 nM.

For `C=CC(=O)N1CCc2c(nc(Cc3cccc(C(F)(F)F)c3)nc2-c2ccn(C)n2)C1` [Cpd. No. 46, 1-(4-(1-methyl-1H-pyrazol-3-yl)-2-(3-(trifluoromethyl)benzyl)-5,8-dihydropyrido[3,4-d]pyrimidin-7(6H)-yl)prop-2-en-1-one], the EC50 [1] was under 1000 nM, the EC50 (NCI-H226) was under 1000 nM and the EC50 (NCI-H2052) was 1000 to 10000 nM.
